Data reported in patent publication US20250206754A1, “PAN-CHEMOKINE ANTAGONISTS FOR USE IN TREATING CANCER AND IMMUNE DISORDERS” ("Micar Innovation" LTD., priority 2022, published 2025).
Where “and” joins values, the source holds several entries; their conditions need not be identical. Equal values may be shown once. Read-outs that look alike come from different tables or passages of the source.

Assays:
CCR1 = biological target: T1, CCR1 (Homo sapiens, UniProt P32246); assay: β-arrestin selectivity assay, CCR1; format: cell-based
T1 sequence (P32246 1-355): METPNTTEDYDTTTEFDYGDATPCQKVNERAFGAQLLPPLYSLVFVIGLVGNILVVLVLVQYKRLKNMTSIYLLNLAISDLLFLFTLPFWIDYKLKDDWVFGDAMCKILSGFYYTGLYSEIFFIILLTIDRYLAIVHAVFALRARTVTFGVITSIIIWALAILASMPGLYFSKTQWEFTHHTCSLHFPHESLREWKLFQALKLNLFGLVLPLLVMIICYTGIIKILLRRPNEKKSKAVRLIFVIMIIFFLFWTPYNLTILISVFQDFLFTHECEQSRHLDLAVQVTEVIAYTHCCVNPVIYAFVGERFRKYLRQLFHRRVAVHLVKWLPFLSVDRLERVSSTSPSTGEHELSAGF

CCR2 = CCR2 (Homo sapiens, UniProt P41597); assay: β-arrestin selectivity assay, CCR2; format: cell-based
CXCR4 = CXCR4 (Homo sapiens, UniProt P61073); assay: Ca^2+ mobilization assay, CXCR4; format: cell-based
Protocol: MIC5023. The synthesis path of MIC5023 is shown on Scheme 1. It consists of 5 chemical transformation in order the final product to be obtained. Two chlorine atoms were added to aromatic rings of MIC5022, and also one methyl group, which makes MIC5023 a close derivative of MIC5022. […] The Ca^2+ mobilization assays retrieved a value of IC50 of about 30 μM and similar for CXCR4; i.e. less than those observed for Hit 1 (MIC5022). MIC5024. The synthesis path of MIC5024 is shown on Scheme 2. It consists of 4 chemical transformation in order the final product to be obtained. The difference between MIC5023 and MIC5024 is only one methyl group introduced in the central five member aromatic ring but it decreased the β-arrestin activity of MIC5024 to CCR1, CCR2 and CCR3 below 30 μM. […] The Ca^2+ mobilization assays retrieved values of IC50>50 μM for CCR7 and CXCR4. Thus, it became evident that this methyl substitution is less sensitive only to CCR3 and CCR5.

CCR7 [1] = biological target: T2, CCR7 (Homo sapiens, UniProt P32248); assay: Ca^2+ mobilization assay, CCR7; format: cell-based; details: Ca^2+ mobilization assay, CCR7
T2 construct: expressed in transfected cells
T2 sequence (P32248 25-378): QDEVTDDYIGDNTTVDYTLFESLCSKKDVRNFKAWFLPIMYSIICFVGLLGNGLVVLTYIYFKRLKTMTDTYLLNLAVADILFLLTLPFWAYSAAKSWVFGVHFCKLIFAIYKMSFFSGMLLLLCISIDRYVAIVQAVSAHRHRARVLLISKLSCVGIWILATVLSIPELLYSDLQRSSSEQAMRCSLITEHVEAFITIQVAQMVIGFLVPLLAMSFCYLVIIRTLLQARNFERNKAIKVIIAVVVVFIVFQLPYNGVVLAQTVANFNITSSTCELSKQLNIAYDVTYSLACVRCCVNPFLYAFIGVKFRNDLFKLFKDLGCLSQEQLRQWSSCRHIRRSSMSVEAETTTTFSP
Protocol: Selected compounds were initially sent for both antagonist and agonist TANGO β-arrestin assays. […] Replacement only on the amide group with CN led to strong activity decrease in β-arrestin assay: only 31% activity at about 30 μM and similar one at 100 μM (Table 1). Five more derivatives with replaced amide group were also tested in parallel by Ca^2+ mobilization assay and they all were not active up to the tested concertation of 100 μM.
To examine the colloid aggregation possibility a β-lactamase enzymatic activity counterscreen assay was performed, which is the commonly adopted tool for detection of such properties of the compounds.

CCR5 = CCR5 (Homo sapiens, UniProt P51681); assay: β-arrestin selectivity assay, CCR5; format: cell-based
CCR3 = biological target: T3, CCR3 (Homo sapiens, UniProt P51677); assay: β-arrestin selectivity assay, CCR3; format: cell-based
T3 sequence (P51677 1-355): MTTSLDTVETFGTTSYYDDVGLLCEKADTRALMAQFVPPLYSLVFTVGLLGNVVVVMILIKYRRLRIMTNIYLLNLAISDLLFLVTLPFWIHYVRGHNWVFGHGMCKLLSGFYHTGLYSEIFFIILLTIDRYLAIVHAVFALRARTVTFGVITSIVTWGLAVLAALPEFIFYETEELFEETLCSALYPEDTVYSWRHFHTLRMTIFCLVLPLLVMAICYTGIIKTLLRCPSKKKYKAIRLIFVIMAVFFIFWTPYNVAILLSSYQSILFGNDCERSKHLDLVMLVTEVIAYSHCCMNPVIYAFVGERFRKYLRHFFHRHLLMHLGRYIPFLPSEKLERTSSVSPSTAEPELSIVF

CCR7 [2] = biological target: T2, CCR7; details: β-arrestin related assay, CCR7, reference [2]; cited from earlier work

Sequence of CXCR4 (P61073 whole entry): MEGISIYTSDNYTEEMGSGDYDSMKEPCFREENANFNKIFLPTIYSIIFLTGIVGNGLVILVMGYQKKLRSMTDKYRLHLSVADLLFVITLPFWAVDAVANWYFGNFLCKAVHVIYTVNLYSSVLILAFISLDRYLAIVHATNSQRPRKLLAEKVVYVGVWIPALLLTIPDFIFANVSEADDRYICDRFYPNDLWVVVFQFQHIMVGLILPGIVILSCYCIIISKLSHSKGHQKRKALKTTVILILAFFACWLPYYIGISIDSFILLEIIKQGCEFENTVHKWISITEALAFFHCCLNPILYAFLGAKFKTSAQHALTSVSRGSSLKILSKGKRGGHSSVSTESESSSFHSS
Sequence of CCR5 (P51681 whole entry): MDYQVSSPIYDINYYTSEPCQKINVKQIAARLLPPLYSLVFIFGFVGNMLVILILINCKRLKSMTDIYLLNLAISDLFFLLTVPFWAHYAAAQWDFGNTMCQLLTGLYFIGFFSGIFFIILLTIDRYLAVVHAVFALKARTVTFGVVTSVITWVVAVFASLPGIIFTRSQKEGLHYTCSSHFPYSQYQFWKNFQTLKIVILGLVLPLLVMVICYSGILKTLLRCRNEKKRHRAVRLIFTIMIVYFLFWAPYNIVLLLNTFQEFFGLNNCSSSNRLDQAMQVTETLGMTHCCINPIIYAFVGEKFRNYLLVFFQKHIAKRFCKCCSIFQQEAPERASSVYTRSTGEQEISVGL
Sequence of CCR2 (P41597 whole entry): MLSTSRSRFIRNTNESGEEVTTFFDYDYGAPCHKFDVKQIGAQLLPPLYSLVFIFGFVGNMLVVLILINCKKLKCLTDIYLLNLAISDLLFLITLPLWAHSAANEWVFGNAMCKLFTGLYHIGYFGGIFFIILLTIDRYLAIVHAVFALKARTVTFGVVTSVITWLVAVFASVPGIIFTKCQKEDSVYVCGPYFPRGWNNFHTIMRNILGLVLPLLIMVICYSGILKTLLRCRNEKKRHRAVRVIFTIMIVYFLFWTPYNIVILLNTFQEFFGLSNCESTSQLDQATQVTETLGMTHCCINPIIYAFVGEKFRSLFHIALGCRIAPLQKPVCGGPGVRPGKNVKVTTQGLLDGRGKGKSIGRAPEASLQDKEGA

IC50 (CCR1) [µM]	IC50 (CCR2) [µM]	IC50 (CXCR4) [µM]	IC50 (CCR7 [1]) [µM]	IC50 (CCR5) [µM]	IC50 (CCR3)	Compound	IC50 (CCR7 [2]) [µM]
> 30	31.5	~30	~30	2.1	> 9.5 µM	Cc1nc(Oc2c(Cl)cccc2C(N)=O)c2c(C)c(-c3ccccc3Cl)sc2n1 [MIC5023, 3-chloro-2-{[6-(2-chlorophenyl)-2,5-dimethylthieno[2,3-d]pyrimidin-4-yl]oxy}benzamide]	
< 30	< 30	> 50	> 50	7.2	< 30 µM and 7.2 µM	Cc1nc(Oc2c(Cl)cccc2C(N)=O)c2cc(-c3ccccc3Cl)sc2n1 [MIC5024, 3-chloro-2-{[6-(2-chlorophenyl)-2-methylthieno[2,3-d]pyrimidin-4-yl]oxy}benzamide]	
						Cosaline	0.2
